Results on 19 molecules are retold here after US8507538B2, “Selective heterocyclic sphingosine 1 phosphate receptor modulators” (Receptos, Inc., priority 2009, dated 2013).

In the assay the target is S1P1/EDG1 (Homo sapiens, UniProt P21453). Nature of the assay: S1P1 CRE-bla CHOK1 reporter assay (inhibition of Forskolin induced cAMP). Type of assay: cell-based. The conditions noted are these: agonist activity range, Table 2; read-out: S1P1 ACTIVITY
An excerpt:
A mammalian expression plasmid containing S1P1/EDG1 cloned into pcDNA3.1 was purchased from Missouri S&T cDNA Resource Centre. The nucleotide and amino acid sequence of human S1P1/EDG1 are published in Hla and Maciag (J Biol Chem, 265(1990), 9308-9313). S1P1/pcDNA3.1 was transfected into the CRE-bla CHO K1 (Invitrogen) cell line, and stable single cell clones were selected using standard techniques. Expression of functional SIP1/EDG1 receptor was confirmed by cell surface FACS with a S1P1 antibody (R&D Systems, clone 218713) and S1P-mediated inhibition of Forskolin induced cAMP.
Cells were seeded into 384-well black wall/clear bottom plates at 10^4 cells/well/19.5 μl assay media (DMEM-phenol free, 0.5% charcoal/dextran stripped serum, 2 mM glutamine, 0.1 mM NEAA, 1 mM Na-Pyruvate, 25 mM Hepes) and incubated for 18 hrs at 37° C. in 5% CO2. Dose response curves (10-point) were generated in 10 mM Hepes, 0.1% Pluronic F127, in the presence of Forskolin. Cells were treated with 0.5 μl compound in the presence of 2 μM Forskolin for 4 hrs at 37° C. The FRET-based β-lactamase fluorescent substrate (LiveBLAzer™ FRET B/G Loading Kit CC4-AM; Invitrogen) was prepared according to manufacturer's directions, and incubated with cells for 2 hrs at room temperature. Plates were read at Ex:410/Em:458 and Ex:410/Em:522, and the response ratio determined. Data was analyzed by non-linear regression to determine the EC50 for inhibition of Forskolin induced cAMP.
A general note: Reporter assays use an easily measured gene product as a stand-in for the process of interest.

Each structure is given as a SMILES string. pEC50: −log10 of the molar value.

Sequence of S1P1/EDG1 (P21453 whole entry): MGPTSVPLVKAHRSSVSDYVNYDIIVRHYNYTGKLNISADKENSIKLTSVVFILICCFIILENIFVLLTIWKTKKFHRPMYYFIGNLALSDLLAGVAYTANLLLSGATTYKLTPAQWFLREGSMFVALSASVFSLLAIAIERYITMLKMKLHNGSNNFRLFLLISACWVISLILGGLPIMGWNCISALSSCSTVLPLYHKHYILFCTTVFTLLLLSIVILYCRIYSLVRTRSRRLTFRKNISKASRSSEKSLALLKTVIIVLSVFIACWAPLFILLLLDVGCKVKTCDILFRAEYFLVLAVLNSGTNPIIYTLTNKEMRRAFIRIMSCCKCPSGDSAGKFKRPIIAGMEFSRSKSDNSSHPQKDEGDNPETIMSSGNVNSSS

For `CC(C)Oc1ccc(-c2ncc(-c3cccc4c3CC[C@@H]4NC(=O)N3CC[C@@H](N)C3)s2)cc1C#N` [Compound 178], the pEC50 is 9.30 to 10.30.
Under `CC(C)Oc1ccc(-c2ncc(-c3cccc4c3CC[C@@H]4NC(=O)N3CC[C@H](N(C)C)C3)s2)cc1C#N` [Compound 182] stands 8.30 to 9.30; under `CC(C)Oc1ccc(-c2ncc(-c3cccc4c3CCC4N3CC[C@H](O)C3)s2)cc1C#N` (stereo partly shown) [Compound 210], 8.30 to 9.30; under `CC(C)Oc1ccc(-c2nnc(-c3cccc4c3CC[C@@H]4NS(=O)(=O)CC(=O)N(C)C)s2)cc1C#N` [Compound 42, (S)-2-(N-(4-(5-(3-cyano-4-isopropoxyphenyl)-1,3,4-thiadiazol-2-yl)-2,3-dihydro-1H-inden-1-yl)sulfamoyl)-N,N-dimethylacetamide], 9.30 to 10.30.
Take `CC(=O)N[C@H]1CCc2c(-c3cnc(-c4ccc(OC(C)C)c(C#N)c4)s3)cccc21` [Compound 88]: the pEC50 was 8.30 to 9.30.
For the molecule `CC(=O)N[C@H]1CCc2c(-c3nnc(-c4ccc(OC(C)C)c(C#N)c4)s3)cccc21` [Compound 14, (S)-N-(4-(5-(3-cyano-4-isopropoxyphenyl)-1,3,4-thiadiazol-2-yl)-2,3-dihydro-1H-inden-1-yl)acetamide], the pEC50 is 9.30 to 10.30.
With `CC(C)Oc1ccc(-c2nnc(-c3cccc4c3CC[C@@H]4NC(=O)N3CCC[C@H](O)C3)s2)cc1C#N` [Compound 60], the pEC50 was 8.30 to 9.30.
To `CC(C)Oc1ccc(-c2ncc(-c3cccc4c3CC[C@@H]4NS(=O)(=O)CCN3CC[C@H](N(C)C)C3)s2)cc1C#N` [Compound 137] belongs under 8.30.
Turning to `CC(C)Oc1ccc(-c2ncc(-c3cccc4c3CCC4O)s2)cc1C#N` (stereo in doubt) [Compound 69, (R)-5-(5-(1-hydroxy-2,3-dihydro-1H-inden-4-yl)thiazol-2-yl)-2-isopropoxy benzonitrile], the pEC50 was 9.30 to 10.30.
As to `CNCCS(=O)(=O)N[C@H]1CCc2c(-c3cnc(-c4ccc(OC(C)C)c(C#N)c4)s3)cccc21` [Compound 125], the pEC50 was 8.30 to 9.30.
To `CC(C)Oc1ccc(-c2ncc(-c3cccc4c3CC[C@@H]4NC(=O)N3CCC(O)CC3)s2)cc1C#N` [Compound 202] belongs 8.30 to 9.30; to `CC(C)Oc1ccc(-c2ncc(-c3cccc4c3CC[C@@H]4NC(=O)N3CC[C@H](N)C3)s2)cc1C#N` [Compound 180], under 8.30; to `CC(C)Oc1ccc(-c2ncc(-c3cccc4c3CC[C@@H]4NCCO)s2)cc1C#N` [Compound 92, (S)-5-(5-(1-((2-hydroxyethyl)amino)-2,3-dihydro-1H-inden-4-yl)thiazol-2-yl)-2-isopropoxybenzonitrile], 8.30 to 9.30.
Under `CC(C)Oc1ccc(-c2ncc(-c3cccc4c3CC[C@@H]4NC(=O)N3CCC[C@H](O)C3)s2)cc1C#N` [Compound 199] stands 9.30 to 10.30; under `CC(C)Oc1ccc(-c2ncc(-c3cccc4c3CC[C@@H]4NS(=O)(=O)CCN3CC[C@H](N)C3)s2)cc1C#N` [Compound 135], under 8.30; under `CC(C)Oc1ccc(-c2ncc(-c3cccc4c3CC[C@@H]4NS(=O)(=O)CCN3CC[C@@H](N(C)C)C3)s2)cc1C#N` [Compound 138], under 8.30.
`CC(C)Oc1ccc(-c2nnc(-c3cccc4c3CC[C@@H]4O)s2)cc1C#N` [Compound 1, (S)-5-(5-(1-hydroxy-2,3-dihydro-1H-inden-4-yl)-1,3,4-thiadiazol-2-yl)-2-isopropoxybenzonitrile]: the pEC50 was 9.30 to 10.30.
Turning to `CC(C)Oc1ccc(-c2ncc(-c3cccc4c3CCC4N3CC(O)C3)s2)cc1C#N` (stereo not shown) [Compound 207, 5-(5-(1-(3-hydroxyazetidin-1-yl)-2,3-dihydro-1H-inden-4-yl)thiazol-2-yl)-2-isopropoxybenzonitrile], the pEC50 was 8.30 to 9.30.
To `CC(C)Oc1ccc(-c2ncc(-c3cccc4c3CC[C@@H]4NS(=O)(=O)CCN3CCCC3)s2)cc1C#N` [Compound 130] belongs 8.30 to 9.30.
